Measured values as given in patent US10913727B2, “Modulators of the integrated stress pathway” (Calico Life Sciences LLC, priority 2016, dated 2021).

These molecules were tested on HEK293T cells carrying the ATF4 luciferase reporter (assay: ATF4-Luc assay, in vitro model of Vanishing Cell White Matter Disease (VWMD)). Conditions: Homo sapiens, HEK-293T, 1 μg/mL tunicamycin, 7 hours, One Glo luminescence.
Assay type: cell-based
Method in brief: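 Reporter cells were stably generated by retroviral transduction and puromycin selection, then seeded at 30,000 cells/well. Next day, cells received 1 μg/mL tunicamycin with 200 nM test compound for 7 h, and luciferase luminescence was read with a one-step reagent. Values reported as EC50.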

Compound	EC50 [nM]
O=C(COc1ccc(Cl)c(F)c1)NC12CCC(NC(=O)c3coc(C(F)(F)F)c3)(CC1)CC2O (stereo not drawn) [Compound 566, N-{4-[2-(4-chloro-3-fluorophenoxy)acetamido]-3-hydroxybicyclo[2.2.2]octan-1-yl}-5-(trifluoromethyl)furan-3-carboxamide]	< 50
O=C(COc1ccc(Cl)c(F)c1)NC12CC(NC(=O)c3ccc(-c4ccco4)cn3)(C1)C2 [Compound 267, N-{3-[2-(4-chloro-3-fluorophenoxy)acetamido]bicyclo[1.1.1]pentan-1-yl}-5-(furan-2-yl)pyridine-2-carboxamide]	< 50
O=C(COc1ccc(Cl)c(F)c1)NC12CC(NC(=O)c3cccc(F)c3)(C1)C2 [Compound 508, N-{3-[2-(4-chloro-3-fluorophenoxy)acetamido]bicyclo[1.1.1]pentan-1-yl}-3-fluorobenzamide]	50 to 250
CCn1ccc(C(=O)NC23CC(NC(=O)COc4ccc(Cl)c(F)c4)(C2)C3)cc1=O [Compound 405, N-{3-[2-(4-chloro-3-fluorophenoxy)acetamido]bicyclo[1.1.1]pentan-1-yl}-1-ethyl-2-oxo-1,2-dihydropyridine-4-carboxamide]	> 2000
CC(C)(O)/C=C/c1ccnc(C(=O)NC23CC(NC(=O)COc4ccc(Cl)c(F)c4)(C2)C3)c1 [Compound 430, N-{3-[2-(4-chloro-3-fluorophenoxy)acetamido]bicyclo[1.1.1]pentan-1-yl}-4-[(1E)-3-hydroxy-3-methylbut-1-en-1-yl]pyridine-2-carboxamide]	> 2000
O=C(COc1ccc(Cl)c(F)c1)NC12CC(NC(=O)c3csc(C4CC4)n3)(C1)C2 [Compound 655, N-{3-[2-(4-chloro-3-fluorophenoxy)acetamido]bicyclo[1.1.1]pentan-1-yl}-2-cyclopropyl-1,3-thiazole-4-carboxamide]	50 to 250
CC(=O)NCc1ccnc(C(=O)NC23CC(NC(=O)COc4ccc(Cl)c(F)c4)(C2)C3)c1 [Compound 194, 4-(acetamidomethyl)-N-{3-[2-(4-chloro-3-fluorophenoxy)acetamido]bicyclo[1.1.1]pentan-1-yl}pyridine-2-carboxamide]	50 to 250
O=C(COc1ccc(Cl)cc1)NC12CC(Nc3nnc(-c4ccc(Cl)cc4)s3)(C1)C2 [Compound 271, 2-(4-chlorophenoxy)-N-(3-{[5-(4-chlorophenyl)-1,3,4-thiadiazol-2-yl]amino}bicyclo[1.1.1]pentan-1-yl)acetamide]	250 to 1000
Cc1ccc(C(=O)NC23CCC(NC(=O)COc4ccc(Cl)c(F)c4)(CC2)[C@@H](O)C3)nc1 [Compound 729, N-{(3S)-4-[2-(4-chloro-3-fluorophenoxy)acetamido]-3-hydroxybicyclo[2.2.2]octan-1-yl}-5-methylpyridine-2-carboxamide]	< 50
Cc1ccnc(C(=O)NC23CC(NC(=O)COc4ccc(Cl)c(F)c4)(C2)C3)c1 [Compound 525, N-{3-[2-(4-chloro-3-fluorophenoxy)acetamido]bicyclo[1.1.1]pentan-1-yl}-4-methylpyridine-2-carboxamide]	250 to 1000
COc1ccc(C(=O)NC23CC(NC(=O)COc4ccc(Cl)c(F)c4)(C2)C3)nc1 [Compound 141, N-{3-[2-(4-chloro-3-fluorophenoxy)acetamido]bicyclo[1.1.1]pentan-1-yl}-5-methoxypyridine-2-carboxamide]	250 to 1000
Cc1cc(C(=O)NC23CCC(NC(=O)COc4ccc(Cl)c(F)c4)(CC2)C(=O)C3)on1 [Compound 630, N-{4-[2-(4-chloro-3-fluorophenoxy)acetamido]-3-oxobicyclo[2.2.2]octan-1-yl}-3-methyl-1,2-oxazole-5-carboxamide]	250 to 1000
CCc1cc(C(=O)NC23CCC(NC(=O)COc4ccc(Cl)c(F)c4)(CC2)[C@@H](O)C3)no1 [Compound 668, N-{(3S)-4-[2-(4-chloro-3-fluorophenoxy)acetamido]-3-hydroxybicyclo[2.2.2]octan-1-yl}-5-ethyl-1,2-oxazole-3-carboxamide]	< 50
N#Cc1ccc(C(=O)NC23CCC(NC(=O)COc4ccc(Cl)c(F)c4)(CC2)C(O)C3)nc1 (stereo not drawn) [Compound 937, N-{4-[2-(4-chloro-3-fluorophenoxy)acetamido]-3-hydroxybicyclo[2.2.2]octan-1-yl}-5-cyanopyridine-2-carboxamide]	< 50
COc1cncc(NC23CC(NC(=O)COc4ccc(Cl)c(F)c4)(C2)C3)n1 [Compound 756, 2-(4-chloro-3-fluorophenoxy)-N-{3-[(6-methoxypyrazin-2-yl)amino]bicyclo[1.1.1]pentan-1-yl}acetamide]	250 to 1000
O=C(COc1ccc(Cl)c(F)c1)NC12CC(NC(=O)c3ccc(OC(F)(F)F)nc3)(C1)C2 [Compound 132, N-{3-[2-(4-chloro-3-fluorophenoxy)acetamido]bicyclo[1.1.1]pentan-1-yl}-6-(trifluoromethoxy)pyridine-3-carboxamide]	50 to 250
Cc1cccn2cc(C(=O)NC34CCC(NC(=O)COc5ccc(Cl)c(F)c5)(CC3)C(O)C4)nc12 (stereo not drawn) [Compound 599, N-{4-[2-(4-chloro-3-fluorophenoxy)acetamido]-3-hydroxybicyclo[2.2.2]octan-1-yl}-8-methylimidazo[1,2-a]pyridine-2-carboxamide]	250 to 1000
COc1ccc2oc(C(=O)NC34CC(NC(=O)COc5ccc(Cl)c(F)c5)(C3)C4)cc2c1 [Compound 319, N-{3-[2-(4-chloro-3-fluorophenoxy)acetamido]bicyclo[1.1.1]pentan-1-yl}-5-methoxy-1-benzofuran-2-carboxamide]	50 to 250
COc1cc(C(=O)NC23CC(NC(=O)COc4ccc(Cl)c(F)c4)(C2)C3)on1 [Compound 253, N-{3-[2-(4-chloro-3-fluorophenoxy)acetamido]bicyclo[1.1.1]pentan-1-yl}-3-methoxy-1,2-oxazole-5-carboxamide]	50 to 250
CCc1nc(C)c(C(=O)NC23CC(NC(=O)COc4ccc(Cl)c(F)c4)(C2)C3)s1 [Compound 294, N-{3-[2-(4-chloro-3-fluorophenoxy)acetamido]bicyclo[1.1.1]pentan-1-yl}-2-ethyl-4-methyl-1,3-thiazole-5-carboxamide]	50 to 250
COCc1cncc(C(=O)NC23CC(NC(=O)COc4ccc(Cl)c(F)c4)(C2)C3)c1 [Compound 568, N-{3-[2-(4-chloro-3-fluorophenoxy)acetamido]bicyclo[1.1.1]pentan-1-yl}-5-(methoxymethyl)pyridine-3-carboxamide]	50 to 250
Cc1cccnc1C(=O)NC12CC(NC(=O)COc3ccc(Cl)c(F)c3)(C1)C2 [Compound 368, N-{3-[2-(4-chloro-3-fluorophenoxy)acetamido]bicyclo[1.1.1]pentan-1-yl}-3-methylpyridine-2-carboxamide]	250 to 1000
O=C(COc1ccc(Cl)c(F)c1)NC12CC(NC(=O)c3cc4n(n3)CCC4)(C1)C2 [Compound 259, N-{3-[2-(4-chloro-3-fluorophenoxy)acetamido]bicyclo[1.1.1]pentan-1-yl}-5,6-dihydro-4H-pyrrolo[1,2-b]pyrazole-2-carboxamide]	250 to 1000
Cc1nc(C(=O)NC23CC(NC(=O)COc4ccc(Cl)c(F)c4)(C2)C3)sc1C [Compound 470, N-{3-[2-(4-chloro-3-fluorophenoxy)acetamido]bicyclo[1.1.1]pentan-1-yl}-4,5-dimethyl-1,3-thiazole-2-carboxamide]	50 to 250
